From article PMC8448819, “The Arabidopsis MIK2 receptor elicits immunity by sensing a conserved signature from phytocytokines and microbes” (Nature Communications, 2021)
“And” between values parts separate entries of the source, which are not always exact repeats. Identical values can stand only once. “Also recorded” adds a separate entry of the source. Like-named read-outs stand apart in the source and are kept apart here. No end group written: not given here.

Assays:
Assay type in all cases: in vivo, Arabidopsis thaliana
[1] = system: mik2-1 and mik2-2 mutant seedlings; conditions: for Root length (Fig. 3e): individual values, one per line; for root growth inhibition in mik2: mik2-1 and mik2-2, 10-day-old seedlings, 1 µM peptide
Arabidopsis WT seedlings = assay: ROS assay (luminol), WT seedlings; conditions: WT seedlings
Protocol: ROS burst was determined by a luminol-based assay. […] Then, ddH2O was replaced by 200 µL of reaction solution containing 50 µM of luminol, and 10 µg/mL of horseradish peroxidase (Sigma-Aldrich) supplemented with or without 100 nM or 1 μM peptide. Luminescence was measured immediately after adding the solution with a luminometer (Glomax 20/20n, Promega) with a one-second interval for 15 min. The total values of ROS production were indicated as means of the relative light units (RLUs).

[2] = system: Arabidopsis WT (Col-0) seedlings; conditions: in vivo
[3] = system: WRKY30, WRKY33 and CYP81F2 expression, WT seedlings; assay: RT-qPCR of defense genes, WT
[4] = system: WRKY30, WRKY33 and CYP81F2 expression, mik2 seedlings; assay: RT-qPCR of defense genes, mik2 mutants
[5] = system: MYB51 promoter, pMYB51::GUS seedling roots; assay: Histochemical GUS staining, pMYB51::GUS; conditions: pMYB51::GUS seedlings, 1 µM, 3 h
Description: Stained samples were fixed with a 3:1 ethanol:acetic acid solution overnight and cleared by lactic acid and photographed with the Olympus SZX10 stereoscopic microscope equipped with DP27 camera.

[6] = system: MPK3, MPK4 and MPK6 phosphorylation, WT seedlings; assay: MAPK assay (α-pERK1/2 immunoblot), WT; conditions: Supplementary Fig. 3i
Protocol: Ten-day-old seedlings grown vertically on ½MS plates were transferred to ddH2O overnight for recovery. Then, ddH2O was replaced by 100 nM peptides for the indicated time.

p35S::Aequorin seedlings = conditions: Ca^2+ and ROS bursts, 100 nM
[7] = system: Arabidopsis WT seedling roots; assay: Microscopy of root browning and root meristems, WT

| Sequence | Root length (Fig. 3e) ([1]; mik2-1) | Root length (Fig. 3e) ([1]; mik2-2) | root growth inhibition [2] | MYB51 promoter activity in roots [5] | other results |
| --- | --- | --- | --- | --- | --- |
| GAPIVFTPPSSSCGGSP [STMP4, STMP4 peptide, which has an amino acid deletion in the conserved SxS motif] | 26.035 and 22.177 and 25.221 and 21.231 and 23.232 and 25.379 and 25.816 and 25.603 and 24.49 | 27.261 and 26.645 and 24.381 and 25.81 and 23.327 and 24.383 and 26.715 and 24.68 and 25.536 and 24.727 | – | – | – |
| KIAVGGSDSVRAHSK [SCOOP23, synthesized SCOOP peptide corresponding to the SxS motif] | 23.435 and 26.217 and 25.329 and 21.432 and 22.769 and 26.981 and 22.432 and 24.659 and 23.767 and 23.209 | 23.086 and 28.297 and 24.517 and 23.273 and 27.734 and 25.385 and 23.518 and 22.015 and 26.958 and 26.866 and 23.718 | inhibited root growth to various degrees | – | ROS production, total luminescence (Fig. 2h) (Arabidopsis WT seedlings; repeat 1): 2180098; ROS production, total luminescence (Fig. 2h) (Arabidopsis WT seedlings; repeat 2): 1251437; ROS production, total luminescence (Fig. 2h) (Arabidopsis WT seedlings; repeat 3): 1771537 |
| KIGASGSNSGRAPSC [SCOOP20, synthesized SCOOP peptide corresponding to the SxS motif] | 24.471 and 25.145 and 23.922 and 25.251 and 22.928 and 25.223 and 20.452 and 22.037 and 23.256 and 20.819 | 26.727 and 24.181 and 24.271 and 27.062 and 26.494 and 25.973 and 25.806 and 29.152 and 24.029 and 26.34 and 22.997 | inhibited root growth to various degrees | – | ROS production, total luminescence (Fig. 2h) (Arabidopsis WT seedlings; repeat 1): 5262077; ROS production, total luminescence (Fig. 2h) (Arabidopsis WT seedlings; repeat 2): 3306520; ROS production, total luminescence (Fig. 2h) (Arabidopsis WT seedlings; repeat 3): 2873103 |
| MGSGASGPVRSSQSSQAGGR [SCOOP12] | – | – | – | – | WRKY30, WRKY33 and CYP81F2 expression ([3]; 1 µM, 1 h, RT-qPCR): upregulation; CYP81F2 expression (Fig. 3i) ([3]; repeat 1): 29.17; CYP81F2 expression (Fig. 3i) ([3]; repeat 2): 38.18; CYP81F2 expression (Fig. 3i) ([3]; repeat 3): 74.97; CYP81F2 expression (Fig. 3i) ([3]; repeat 4): 101.98; CYP81F2 expression (Fig. 3i) ([4]; mik2-1, repeat 1): 5.42; CYP81F2 expression (Fig. 3i) ([4]; mik2-1, repeat 2): 5.95; CYP81F2 expression (Fig. 3i) ([4]; mik2-1, repeat 3): 2.79; CYP81F2 expression (Fig. 3i) ([4]; mik2-1, repeat 4): 3.39; CYP81F2 expression (Fig. 3i) ([4]; mik2-2, repeat 1): 6.08; CYP81F2 expression (Fig. 3i) ([4]; mik2-2, repeat 2): 9.84; CYP81F2 expression (Fig. 3i) ([4]; mik2-2, repeat 3): 9.95; CYP81F2 expression (Fig. 3i) ([4]; mik2-2, repeat 4): 12.98; WRKY30, WRKY33 and CYP81F2 expression ([4]; mik2 mutants, 1 µM, 1 h, RT-qPCR): abolished in mik2 mutants |
| MISEARPSKSKKGGGR [SCOOP6B, synthesized SCOOP peptide corresponding to the SxS motif] | 26.764 and 22.587 and 22.234 and 24.018 and 23.886 and 24.716 and 22.804 and 23.685 and 23.478 and 25.619 | 24.299 and 28.027 and 25.995 and 25.387 and 24.265 and 26.073 and 27.219 and 21.779 and 25.474 and 24.644 | inhibited root growth to various degrees | – | – |
| PPRGPGGSGSGHGGGR [AtSCOOPL, SCOOPL from Acidovorax temperans] | – | – | inactivity | inactivity | – |
| PPRGSGGPGGSGHGGGG [AaSCOOPL, SCOOPL from Acidovorax avenae] | – | – | inactivity | inactivity | – |
| PPRGSGGSGSGHGGGR [VeSCOOPL, SCOOPL from Verminephrobacter eiseniae] | – | – | induced growth inhibition | MYB51 promoter activation in roots | root growth inhibition in mik2 [1]: blocked in mik2-1 |
| PPRGSGGSSSGHGGGR [CuSCOOPL, SCOOPL from a strain of Curvibacter sp] | – | – | induced growth inhibition | MYB51 promoter activation in roots | root growth inhibition in mik2 [1]: blocked in mik2-1 |
| RGIVKPPIASFHSASPKDKGP [SCOOP4, synthesized SCOOP peptide corresponding to the SxS motif] | 22.155 and 26.016 and 23.373 and 23.51 and 24.985 and 25.73 and 26.362 and 20.719 and 23.733 and 21.154 | 26.627 and 26.926 and 29.205 and 26.909 and 23.654 and 24.824 and 23.191 and 25.56 and 22.857 and 22.903 and 27.736 | inhibited root growth to various degrees | – | – |
| RPPTPRVAVHSNSTKGKGP [SCOOP15B, synthesized SCOOP peptide corresponding to the SxS motif] | 22.469 and 26.152 and 25.889 and 25.356 and 27.954 and 26.487 and 24.47 and 23.738 | 21.779 and 26.908 and 23.024 and 23.497 and 28.191 and 26.08 and 24.094 and 28.257 and 26.467 and 23.539 and 26.537 | inhibited root growth to various degrees | – | – |
| RSMAPPIFVPPSTSHKGQGP [SCOOP14, synthesized SCOOP peptide corresponding to the SxS motif] | 24.089 and 21.232 and 24.336 and 25.505 and 25.175 and 27.845 and 26.169 and 23.827 and 21.884 and 25.844 | 25.38 and 24.419 and 26.016 and 27.911 and 26.615 and 21.291 and 24.947 and 21.905 and 24.43 and 24.226 | inhibited root growth to various degrees; also recorded: potent in inhibiting root growth | induced the promoter activities of MYB51 | MAPK activation in shoots and roots [6]: triggered the MAPK activation in both shoots and roots; ROS production, SCOOP13 and 14 relative to other SCOOPs, and Ca^2+ bursts (p35S::Aequorin seedlings): relatively weak activities for Ca^2+ and ROS bursts; ROS production, total luminescence (Fig. 2h) (Arabidopsis WT seedlings; repeat 1): 719851; ROS production, total luminescence (Fig. 2h) (Arabidopsis WT seedlings; repeat 2): 1351126; ROS production, total luminescence (Fig. 2h) (Arabidopsis WT seedlings; repeat 3): 841586; root browning ([7]; WT seedlings, prolonged treatment): led to brown roots; root meristem distortion ([7]; WT, 5-day-old seedlings, 1 µM, 48 h, PI staining): distorted root meristems |
| SNIDFEGSISGQAGGG [SCOOP8, synthesized SCOOP peptide corresponding to the SxS motif] | 25.253 and 25.162 and 23.049 and 22.582 and 26.011 and 22.381 and 28.631 and 26.512 and 24.502 and 27.853 | 23.975 and 28.387 and 29.648 and 23.838 and 24.549 and 26.123 and 23.426 and 24.732 and 24.595 and 29.804 and 26.398 | inhibited root growth to various degrees | – | – |
